Laboratory results: patent US10196401B2, “Spiro-lactam NMDA receptor modulators and uses thereof” (Aptinyx Inc., priority 2016, dated 2019)

Key:
[1] = Microsomal stability, rat; assay type: in vitro ADME
Procedure: Microsomal and plasma stability of Compound A was investigated. The following table indicates the percent of Compound A remaining after 60 minutes.
Microsomal and plasma stability of Compound B was investigated. The following table indicates the percent of Compound B remaining after 60 minutes.

[2] = Plasma protein binding, rat; assay type: in vitro ADME; settings: read-out: plasma protein binding (% bound) (converted)
Procedure: Unbound drug concentration in the brain was also investigated, and plasma protein binding assays were conducted. The following table (% bound) indicates results for Compound A.
Unbound drug concentration in the brain was also investigated, and plasma protein binding assays were conducted. The following table (% bound) indicates results for Compound B.

NMDAR2D = NMDAR2D (Homo sapiens, UniProt O15399+Q05586); experiment: Potentiation of [3H]MK-801 binding, NMDAR2D; parameters: species or system rat; settings: NMDAR2D binding profile, wild-type
Chain of NMDAR2D (O15399 28-1336, species assumed, other chains not shown): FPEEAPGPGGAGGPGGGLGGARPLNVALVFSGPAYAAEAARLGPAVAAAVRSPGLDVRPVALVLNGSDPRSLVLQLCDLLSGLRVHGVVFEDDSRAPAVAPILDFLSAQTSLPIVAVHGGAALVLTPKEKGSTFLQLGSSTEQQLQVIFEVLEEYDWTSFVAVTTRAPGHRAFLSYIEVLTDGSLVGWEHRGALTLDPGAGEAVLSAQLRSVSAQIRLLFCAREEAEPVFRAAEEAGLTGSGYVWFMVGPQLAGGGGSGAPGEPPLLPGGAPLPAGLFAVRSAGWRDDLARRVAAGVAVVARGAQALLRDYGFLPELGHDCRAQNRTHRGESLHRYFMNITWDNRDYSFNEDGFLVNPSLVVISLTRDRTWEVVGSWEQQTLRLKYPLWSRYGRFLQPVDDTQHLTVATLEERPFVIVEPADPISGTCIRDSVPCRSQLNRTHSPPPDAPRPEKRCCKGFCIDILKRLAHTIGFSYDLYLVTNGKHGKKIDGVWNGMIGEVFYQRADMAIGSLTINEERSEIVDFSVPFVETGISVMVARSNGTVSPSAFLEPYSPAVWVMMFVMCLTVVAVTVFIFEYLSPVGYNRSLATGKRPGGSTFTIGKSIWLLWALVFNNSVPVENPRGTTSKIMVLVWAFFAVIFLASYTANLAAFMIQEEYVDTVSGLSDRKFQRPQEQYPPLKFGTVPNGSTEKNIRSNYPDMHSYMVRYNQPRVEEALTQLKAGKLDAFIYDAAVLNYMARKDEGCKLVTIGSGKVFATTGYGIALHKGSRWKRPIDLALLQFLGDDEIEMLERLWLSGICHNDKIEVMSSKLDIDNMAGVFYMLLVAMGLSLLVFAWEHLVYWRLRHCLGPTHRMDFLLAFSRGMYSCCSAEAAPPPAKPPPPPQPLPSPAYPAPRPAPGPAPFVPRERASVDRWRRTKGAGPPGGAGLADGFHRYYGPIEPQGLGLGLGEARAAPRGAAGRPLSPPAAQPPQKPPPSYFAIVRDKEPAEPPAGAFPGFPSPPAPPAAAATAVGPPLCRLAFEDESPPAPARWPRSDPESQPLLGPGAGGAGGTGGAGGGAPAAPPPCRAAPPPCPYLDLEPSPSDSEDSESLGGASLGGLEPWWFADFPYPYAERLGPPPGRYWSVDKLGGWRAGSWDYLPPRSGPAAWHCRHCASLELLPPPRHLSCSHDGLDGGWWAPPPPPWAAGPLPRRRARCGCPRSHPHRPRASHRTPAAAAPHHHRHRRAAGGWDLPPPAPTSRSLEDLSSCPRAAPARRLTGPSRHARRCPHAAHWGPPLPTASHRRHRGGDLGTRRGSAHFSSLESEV
Procedure: Assays were conducted as described by Moskal et al., “GLYX-13: a monoclonal antibody-derived peptide that acts as an N-rnethyl-D-aspartate receptor modulator,” Neuropharmacology, 49, 1077-87, 2005. The potentiation of [^3H]MK-801 binding (5 nrM; 22.5 Ci/mmol) to well washed rat cortical membranes (200 μg) was measured under non-equilibrium conditions (15 min @ 25° C.) in the presence of increasing concentrations of Compound A.
Assays were conducted as described above in Example 5, by Moskal et al. (2005).

| Microsomal stability, percent remaining after 60 minutes [1] [%] | fraction unbound [2] | EC50 (NMDAR2D) [nM] | SMILES |
| --- | --- | --- | --- |
| 65 | 0.701 | – | CC(C)CN1CCC[C@]12CN([C@H](C(N)=O)[C@@H](C)O)C2=O [Compound A, (2S,3R)-3-hydroxy-2-((R)-5-isobutyl-1-oxo-2,5-diazaspiro[3.4]octan-2-yl)butanamide] |
| 81 | 0.802 | 3.98 | CC(C)CN1CCC[C@@]12CN([C@H](C(N)=O)[C@@H](C)O)C2=O [Compound B, (2S,3R)-3-hydroxy-2-((S)-5-isobutyl-1-oxo-2,5-diazaspiro[3.4]octan-2-yl)butanamide] |
